Results published in patent publication US9113629B2, “4-amino-6-(4-substituted-phenyl)-picolinates and 6-amino-2-(4-substituted-phenyl)-pyrimidine-4-carboxylates and their use as herbicides” (DOW AGROSCIENCES LLC, priority 2013, dated 2015).
Like-named read-outs stand apart in the source and are kept apart here.

Legend:
[1] = tested on: Key Grass and Sedge Weeds as well as Grass Crops; test: Post-emergent Test II herbicidal activity (Table 6); type: in vivo; conditions: post-emergence, 336 h; for pest or weed control at 70 g/ha: application rate 70 g ai/ha; for pest or weed control at 140 g/ha: application rate 140 g ai/ha
In short: (§1)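 Spray rates: a highest rate plus ½×, ¼×, ⅛×, 1/16×, all delivered at 187 L/ha to plants at the first–second true leaf stage. Readout is a visual percent injury score at 14 d, where 100 means complete kill.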

[2] = tested on: Key Broadleaf Weed and Crop Species; test: Post-emergent Test II herbicidal activity (Table 5); type: in vivo; conditions: post-emergence, 336 h, post-emergent, 14 days after application; for pest or weed control at 70 g/ha: 70 g ai/ha; for pest or weed control at 140 g/ha: 140 g ai/ha
In short: as §1

[3] = Triticum aestivum, TRZSS (wheat), read-out: Visual Growth Reduction (%) 14 Days After Application, TRZSS
[4] = CYPES: yellow nutsedge (Cyperus esculentus), read-out: Visual Growth Reduction (%) 14 Days After Application, CYPES
[5] = DIGSA: crabgrass (Digitaria sanguinalis), read-out: Visual Growth Reduction (%) 14 Days After Application, DIGSA
[6] = ECHCG: barnyardgrass (Echinochloa crus-galli), read-out: Visual Growth Reduction (%) 14 Days After Application, ECHCG
[7] = ORYSA: rice (Oryza sativa), read-out: Visual Growth Reduction (%) 14 Days After Application, ORYSA
[8] = SETFA: giant foxtail (Setaria faberi), read-out: Visual Growth Reduction (%) 14 Days After Application, SETFA
[9] = SORVU: grain sorghum (Sorghum vulgare), read-out: Visual Growth Reduction (%) 14 Days After Application, SORVU
[10] = ZEAMX: maize, corn (Zea mays), read-out: Visual Growth Reduction (%) 14 Days After Application, ZEAMX
[11] = ABUTH: velvetleaf (Abutilon theophrasti), read-out: Visual Growth Reduction (%) 14 Days After Application ABUTH
[12] = AMARE: redroot pigweed (Amaranthus retroflexus), read-out: Visual Growth Reduction (%) 14 Days After Application AMARE
[13] = BRSNN: oilseed-rape, canola (Brassica napus), read-out: Visual Growth Reduction (%) 14 Days After Application BRSNN
[14] = CHEAL: lambsquarters (Chenopodium album), read-out: Visual Growth Reduction (%) 14 Days After Application CHEAL
[15] = EPHHL: wild poinsettia (Euphorbia heterophylla), read-out: Visual Growth Reduction (%) 14 Days After Application EPHHL
[16] = HELAN: sunflower (Helianthus annuus), read-out: Visual Growth Reduction (%) 14 Days After Application HELAN
[17] = VIOTR: wild pansy (Viola tricolor), read-out: Visual Growth Reduction (%) 14 Days After Application VIOTR

Q: What does the source list for `COC(=O)c1nc(-c2ccc(Br)c(F)c2)c(Cl)c(N)c1Cl` [Compound 73, Methyl 4-amino-6-(4-bromo-3-fluorophenyl)-3,5-dichloropicolinate]?
A: pest or weed control at 70 g/ha [1, 3]: 60 to 74%; pest or weed control at 140 g/ha [1, 3]: 60 to 74%; pest or weed control at 70 g/ha [1, 4]: 95 to 100%; pest or weed control at 140 g/ha [1, 4]: 95 to 100%; pest or weed control at 70 g/ha [1, 5]: 0 to 29%; pest or weed control at 140 g/ha [1, 5]: 45 to 59%; pest or weed control at 70 g/ha [1, 6]: 0 to 29%; pest or weed control at 140 g/ha [1, 6]: 60 to 74%; pest or weed control at 70 g/ha [1, 7]: 0 to 29%; pest or weed control at 140 g/ha [1, 7]: 0 to 29%; pest or weed control at 70 g/ha [1, 8]: 60 to 74%; pest or weed control at 140 g/ha [1, 8]: 60 to 74%; pest or weed control at 70 g/ha [1, 9]: 85 to 94%; pest or weed control at 140 g/ha [1, 9]: 85 to 94%; pest or weed control at 70 g/ha [1, 10]: 60 to 74%; pest or weed control at 140 g/ha [1, 10]: 60 to 74%; pest or weed control at 70 g/ha [2, 11]: 85 to 94%; pest or weed control at 140 g/ha [2, 11]: 85 to 94%; pest or weed control at 70 g/ha [2, 12]: 95 to 100%; pest or weed control at 140 g/ha [2, 12]: 95 to 100%; pest or weed control at 70 g/ha [2, 13]: 95 to 100%; pest or weed control at 140 g/ha [2, 13]: 95 to 100%; pest or weed control at 70 g/ha [2, 14]: 85 to 94%; pest or weed control at 140 g/ha [2, 14]: 85 to 94%; pest or weed control at 70 g/ha [2, 15]: 45 to 59%; pest or weed control at 140 g/ha [2, 15]: 60 to 74%; pest or weed control at 70 g/ha [2, 16]: 95 to 100%; pest or weed control at 140 g/ha [2, 16]: 95 to 100%; pest or weed control at 70 g/ha [2, 17]: 45 to 59%; pest or weed control at 140 g/ha [2, 17]: 45 to 59%
